We go through three molecules from patent US4882447A, “Novel organic platinum complex and process for the preparation thereof” (priority 1987, dated 1989).

The subject of data set [1] is Sarcoma cells. The data set can be described thus: Chemotherapeutic effect on subcutaneously inoculated sarcoma cells in ICR mice (tumor weight, i.p. once a day for 5 days). The data set is classed as in vivo, female ICR mice. To be noted: for Inhibition rate / Inhibition rate (%) (entry: toxic): once a day for 5 days; for Inhibition rate: tumor weight 5 days after the administration; for Inhibition rate (%) (entry: toxic): 100 mg/kg/day i.p., group of five female ICR mice; for ED30: denominator of MTD/ED30; for ED30 / MTD: doses of the table in mg/kg/day; for ED30 / MTD / Therapeutic index (MTD/ED30): i.p. once a day for 5 days; for MTD: numerator of MTD/ED30; for Therapeutic index (MTD/ED30): ratio MTD/ED30. The procedure:
Chemotherapeutic effect of the organic platinum complex (I) of this invention was investigated as follows.
Sarcoma cells (1.5×10^6 cells) were inoculated subcutaneously at inguinal region of a group of five female mice (ICR mice, five week age). Twenty four hours after the inoculation, a solution of test compound was intraperitoneally administered to the mice once a day for 5 days. The weight of tumor in the mice was measured 5 days after the administration.

A short description of data set [2]: Renal function indices (creatinine and urea in blood) in mice. The data set is classed as in vivo. To be noted: dose required to induce 100% increase in the life span. The text has this:
The organic platinum complex of the invention also has advantageous properties such as less toxicity to kidney, remarkedly higher water solubility and is easily transferred into organs in vivo in comparison with known organic platinum complexes.

In the case of `CC(=O)NC1C(=O)[O][Pt]2([NH]C3CCCCC3[NH]2)[O]C1=O` (stereo not drawn) [Compound 1, [2-(acetylamino)malonato](trans-l-1,2-diaminocyclohexane)platinum (II)], the Inhibition rate in data set [1] (3.12 mg/kg/day i.p.) was 28.4%; in data set [1] (6.25 mg/kg/day i.p.) it was 36.0%; in data set [1] (12.5 mg/kg/day i.p.), 52.3%; in data set [1] (25 mg/kg/day i.p.), 64.8%; in data set [1] (50 mg/kg/day i.p.), 89.4%. In data set [1], the “Inhibition rate (%) (entry: toxic)” value is reported as “Toxic (5/5)”. In data set [1], this molecule returned an ED30 of 3.6. For the same molecule, the MTD in data set [1] is 50. In addition, in data set [2], the “influence on indices of renal functions such as the concentration of creatinine and ueas in blood” value is “no influences”.
On to `COCCOCC(=O)NC1C(=O)[O][Pt-2]2([NH2+]C3CCCCC3[NH2+]2)[O]C1=O` (stereo not drawn) [Compound 2, [2-[[(methoxyethoxy)acetyl]amino]malonato] (trans-l-1,2-diaminocyclohexane)platinum (II)], for which the Inhibition rate in data set [1] (6.25 mg/kg/day i.p.) worked out at 17.8%; in data set [1] (12.5 mg/kg/day i.p.), 57.6%; in data set [1] (25 mg/kg/day i.p.), 65.4%; in data set [1] (50 mg/kg/day i.p.), 80.2%. The “Inhibition rate (%) (entry: toxic)” value in data set [1] was “Toxic (4/5)”. The ED30 in data set [1] came to 6.7. The molecule further displayed an MTD in data set [1] of 50. For the same molecule, the “Therapeutic index (MTD/ED30)” value in data set [1] was 7.5.
For `CC(=O)NC1(C)C(=O)[O][Pt-2]2([NH2+]C3CCCCC3[NH2+]2)[O]C1=O` (stereo not drawn) [Compound 3, [2-(acetylamino)-2-methylmalonato] (trans-l-1,2-diaminocyclohexane) platinum (II)], the Inhibition rate in data set [1] (6.25 mg/kg/day i.p.) is reported as 26.4%. In data set [1] (12.5 mg/kg/day i.p.), the Inhibition rate stood at 49.7%. In addition, in data set [1] (25 mg/kg/day i.p.), the Inhibition rate is reported as 63.5%. For the same molecule, in data set [1] (50 mg/kg/day i.p.), the Inhibition rate was 80.7%. In addition, in data set [1], the “Inhibition rate (%) (entry: toxic)” value is reported as “Toxic (5/5)”, the ED30 was 7.0, the MTD is recorded as 50 and the “Therapeutic index (MTD/ED30)” value is given as 7.1.
